{
  "source": "paper PMC12016938",
  "about": "“A small molecule PKCε inhibitor reduces hyperalgesia induced by paclitaxel or opioid withdrawal” (JCI Insight, 2025)",
  "key": {"[1]": {"test": "Pharmacokinetic studies in rats (plasma and brain)", "assay_type": "in vivo", "protocol": "Because binding to plasma protein was approximately 90%, we predicted that the free concentration at each time point was 10 times lower than the measured plasma concentration.\nPharmacokinetic studies in rats. Pharmacokinetics studies were contracted to the Drug Metabolism and Pharmacokinetics Core at Scripps Research. CP612 was dissolved at in 10% Tween-80/90% water and administered at 40 mg/kg/5 mL. Six rats were injected i.v. and 6 were injected i.p. Three rats were used to collect a full plasma time course from 5 minutes to 24 hours after dose. Then, brains were collected from these rats at 24 hours and from 3 additional rats at 2 hours after administration of compound. One rat receiving i.p. administration of CP612 was excluded as it had low/nondetectable levels indicating missed i.p. injection in that rat. Plasma samples were diluted 10-fold in blank plasma. Each brain was disrupted in potassium phosphate buffer (pH 7.4; 9 μL per 1mg tissue) on ice using brief sonication pulses. CP612 was detected with an API Triple Quad 5500 LC-MS/MS (SCIEX) using an MRM(+) method: CP612 (463/282, m/z) with carbamazepine (238/195.1, m/z) as an internal standard."}, "[2]": {"biological_target": "ROCK1 (Homo sapiens, UniProt Q13464)", "sequence (Q13464 whole entry)": "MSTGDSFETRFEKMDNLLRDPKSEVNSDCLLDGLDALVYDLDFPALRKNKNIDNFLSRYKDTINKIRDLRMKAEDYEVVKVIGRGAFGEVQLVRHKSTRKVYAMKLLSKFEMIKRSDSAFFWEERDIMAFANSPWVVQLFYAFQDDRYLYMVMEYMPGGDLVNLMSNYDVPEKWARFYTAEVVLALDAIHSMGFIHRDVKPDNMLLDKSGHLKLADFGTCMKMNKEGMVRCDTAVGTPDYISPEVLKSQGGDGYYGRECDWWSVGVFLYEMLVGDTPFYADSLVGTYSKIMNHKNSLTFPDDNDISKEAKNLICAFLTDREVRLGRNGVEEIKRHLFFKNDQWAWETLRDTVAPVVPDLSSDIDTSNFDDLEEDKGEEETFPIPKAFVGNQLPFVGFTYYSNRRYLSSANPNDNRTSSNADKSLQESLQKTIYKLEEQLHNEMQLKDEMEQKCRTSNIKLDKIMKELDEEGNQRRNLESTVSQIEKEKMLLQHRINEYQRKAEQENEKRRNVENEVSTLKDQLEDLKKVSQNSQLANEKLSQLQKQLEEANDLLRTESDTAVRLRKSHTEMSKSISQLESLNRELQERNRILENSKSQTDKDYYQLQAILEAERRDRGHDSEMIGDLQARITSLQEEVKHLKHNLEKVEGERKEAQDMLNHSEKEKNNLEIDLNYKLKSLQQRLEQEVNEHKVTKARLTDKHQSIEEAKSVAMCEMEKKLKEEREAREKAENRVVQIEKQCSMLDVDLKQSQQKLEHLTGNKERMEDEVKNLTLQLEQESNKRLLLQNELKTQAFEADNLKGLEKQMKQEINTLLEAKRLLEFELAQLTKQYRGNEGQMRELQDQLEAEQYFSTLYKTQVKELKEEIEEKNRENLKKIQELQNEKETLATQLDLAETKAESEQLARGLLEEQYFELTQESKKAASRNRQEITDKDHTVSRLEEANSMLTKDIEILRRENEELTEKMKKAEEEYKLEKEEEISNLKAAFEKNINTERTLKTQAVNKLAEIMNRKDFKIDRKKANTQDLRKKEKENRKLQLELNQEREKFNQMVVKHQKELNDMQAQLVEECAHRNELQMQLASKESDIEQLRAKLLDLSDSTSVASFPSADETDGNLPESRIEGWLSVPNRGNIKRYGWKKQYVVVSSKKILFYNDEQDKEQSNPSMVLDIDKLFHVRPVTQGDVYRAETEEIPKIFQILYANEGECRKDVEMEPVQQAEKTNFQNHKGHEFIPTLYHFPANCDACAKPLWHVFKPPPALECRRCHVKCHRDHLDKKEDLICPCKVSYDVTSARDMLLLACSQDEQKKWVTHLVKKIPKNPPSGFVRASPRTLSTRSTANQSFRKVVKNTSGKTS", "test": "scanMax kinome panel, ROCK1", "assay_type": "binding", "parameters": "purchased Eurofins-DiscoverX", "conditions": "200 nM CP612", "protocol": "CP612 was screened for kinome specificity at 200 nM against 468 kinases using the scanMax assay panel from Eurofins-DiscoverX. CP612 inhibited 10 other WT kinases besides PKCε, all to < 10% of control: CLK1 (CDC Like Kinase 1), CLK4, PKN1 (Protein kinase N1), PKN2, PKCδ, PKCη, PKCθ, PRKG2 (Protein Kinase CGMP-Dependent 2), ROCK1, and ROCK2."}, "[3]": {"conditions": "rat, i.v. 40 mg/kg, 24h, individual rat, 40 mg/kg"}, "[4]": {"conditions": "rat, plasma, ip, 40 mg/kg, i.p. 40 mg/kg, individual rat"}, "[5]": {"conditions": "rat, plasma, ip, 40 mg/kg, i.p. 40 mg/kg, mean all rats"}, "[6]": {"conditions": "rat, plasma, iv, 40 mg/kg, i.v. 40 mg/kg, individual rat"}, "[7]": {"conditions": "rat, plasma, iv, 40 mg/kg, i.v. 40 mg/kg, mean all rats"}},
  "note": "Several values for one entry are separate records, joined by “and”; a condition that tells them apart may be missing. Equal entries are not always repeated. Where two headings read alike, the source gives them in different places.",
  "data": [
    {"smiles": "N[C@H](CNC(=O)C1(c2ccc(Cl)cc2)CCCC1)c1ccc(C(=O)Nc2ccncc2)cc1", "note": "[CP612]", "values": [
      {"measurement": "Plasma concentration", "setting": "[1]; rat, i.v. 40 mg/kg, 6h, individual rat, 40 mg/kg", "value": "1.8230 µM and 1.1599 µM"},
      {"measurement": "Plasma concentration", "setting": "[1]; rat, i.v. 40 mg/kg, 8h, individual rat, 40 mg/kg", "value": "1.5465 µM and 1.2657 µM"},
      {"measurement": "Brain/Plasma", "setting": "[1]; [3]", "value": "11.80 and 2.82 and 12.90"},
      {"measurement": "Plasma concentration", "setting": "[1]; [3]", "value": "0.1270 µM and 0.2873 µM and 0.1609 µM"},
      {"measurement": "concentration at 2 h", "setting": "[1]; rat, i.v. 40 mg/kg, 24h, individual rat, 40 mg/kg, read-out: Brain concentration", "value": "1.4990 µM and 0.8100 µM and 2.0757 µM"},
      {"measurement": "Plasma 2h/24h", "setting": "[1]; rat, i.v. 40 mg/kg, individual rat, 40 mg/kg", "value": "88.9456 and 42.9323 and 75.0336"},
      {"measurement": "Plasma 2h/24h", "setting": "[1]; rat, i.v. 40 mg/kg, mean all rats", "value": 68.9705},
      {"measurement": "Plasma 2h/24h", "setting": "[1]; rat, i.v. 40 mg/kg, mean of RM Plasma + Brain 24h rats", "value": 68.9705},
      {"measurement": "Cmax", "setting": "[1]; rat, ip, rats, 40 mg/kg i.p., plasma", "value": "29.3 ± 1", "unit": "µM"},
      {"measurement": "Cmax", "setting": "[1]; rat, iv, rats, 40 mg/kg i.v., plasma", "value": "104 ± 3.1", "unit": "µM"},
      {"measurement": "concentration at 15 min", "setting": "[1]; [4]", "value": 22, "unit": "µM"},
      {"measurement": "concentration at 15 min", "setting": "[1]; [5]", "value": 21.9, "unit": "µM"},
      {"measurement": "concentration at 30 min", "setting": "[1]; [4]", "value": 30.2, "unit": "µM"},
      {"measurement": "concentration at 30 min", "setting": "[1]; [5]", "value": 25.4, "unit": "µM"},
      {"measurement": "concentration at 1 h", "setting": "[1]; [4]", "value": 28.3, "unit": "µM"},
      {"measurement": "concentration at 1 h", "setting": "[1]; [5]", "value": 28.3, "unit": "µM"},
      {"measurement": "concentration at 4 h", "setting": "[1]; [4]", "value": 5.16, "unit": "µM"},
      {"measurement": "concentration at 4 h", "setting": "[1]; [5]", "value": 5.82, "unit": "µM"},
      {"measurement": "concentration at 6 h", "setting": "[1]; rat, plasma, ip, 40 mg/kg, i.p. 40 mg/kg, 6h, individual rat", "value": 1.91, "unit": "µM"},
      {"measurement": "concentration at 6 h", "setting": "[1]; rat, plasma, ip, 40 mg/kg, i.p. 40 mg/kg, 6h, mean all rats", "value": 1.89, "unit": "µM"},
      {"measurement": "concentration at 8 h", "setting": "[1]; rat, plasma, ip, 40 mg/kg, i.p. 40 mg/kg, 8h, individual rat", "value": 2.29, "unit": "µM"},
      {"measurement": "concentration at 8 h", "setting": "[1]; rat, plasma, ip, 40 mg/kg, i.p. 40 mg/kg, 8h, mean all rats", "value": 2.13, "unit": "µM"},
      {"measurement": "concentration at 2 h", "setting": "[1]; rat, plasma, ip, 40 mg/kg, rat, i.p. 40 mg/kg, 2h, individual rat, read-out: Plasma concentration", "value": 14.4, "unit": "µM"},
      {"measurement": "concentration at 2 h", "setting": "[1]; rat, plasma, ip, 40 mg/kg, rat, i.p. 40 mg/kg, 2h, mean all rats, read-out: Plasma concentration", "value": 15, "unit": "µM"},
      {"measurement": "concentration at 2 h", "setting": "[1]; rat, plasma, ip, 40 mg/kg, rat, i.p. 40 mg/kg, 2h, mean of Plasma 2h, Brain 2h rats, read-out: Plasma concentration", "value": 15.1, "unit": "µM"},
      {"measurement": "concentration at 2 h", "setting": "[1]; rat, plasma, ip, 40 mg/kg, rat, i.p. 40 mg/kg, 2h, mean of RM Plasma + Brain 24h rats, read-out: Plasma concentration", "value": 14.7, "unit": "µM"},
      {"measurement": "concentration at 24 h", "setting": "[1]; rat, plasma, ip, 40 mg/kg, rat, i.p. 40 mg/kg, 24h, individual rat, read-out: Plasma concentration", "value": 0.38, "unit": "µM"},
      {"measurement": "concentration at 24 h", "setting": "[1]; rat, plasma, ip, 40 mg/kg, rat, i.p. 40 mg/kg, 24h, mean all rats, read-out: Plasma concentration", "value": 0.498, "unit": "µM"},
      {"measurement": "concentration at 24 h", "setting": "[1]; rat, plasma, ip, 40 mg/kg, rat, i.p. 40 mg/kg, 24h, mean of RM Plasma + Brain 24h rats, read-out: Plasma concentration", "value": 0.498, "unit": "µM"},
      {"measurement": "half-life", "setting": "[1]; rat, plasma, ip, rats, 40 mg/kg i.p.", "value": "6.8 ± 0.7", "unit": "h"},
      {"measurement": "concentration at 5 min", "setting": "[1]; [6]", "value": 80.3, "unit": "µM"},
      {"measurement": "concentration at 5 min", "setting": "[1]; [7]", "value": 80.3, "unit": "µM"},
      {"measurement": "concentration at 15 min", "setting": "[1]; [6]", "value": 57, "unit": "µM"},
      {"measurement": "concentration at 15 min", "setting": "[1]; [7]", "value": 52.6, "unit": "µM"},
      {"measurement": "concentration at 30 min", "setting": "[1]; [7]", "value": 28.5, "unit": "µM"},
      {"measurement": "concentration at 1 h", "setting": "[1]; [6]", "value": 26.4, "unit": "µM"},
      {"measurement": "concentration at 1 h", "setting": "[1]; [7]", "value": 24.8, "unit": "µM"},
      {"measurement": "concentration at 4 h", "setting": "[1]; [6]", "value": 3.97, "unit": "µM"},
      {"measurement": "concentration at 4 h", "setting": "[1]; [7]", "value": 4.11, "unit": "µM"},
      {"measurement": "concentration at 6 h", "setting": "[1]; rat, plasma, iv, 40 mg/kg, i.v. 40 mg/kg, 6h, individual rat", "value": 1.68, "unit": "µM"},
      {"measurement": "concentration at 6 h", "setting": "[1]; rat, plasma, iv, 40 mg/kg, i.v. 40 mg/kg, 6h, mean all rats", "value": 1.55, "unit": "µM"},
      {"measurement": "concentration at 8 h", "setting": "[1]; rat, plasma, iv, 40 mg/kg, i.v. 40 mg/kg, 8h, individual rat", "value": 1.42, "unit": "µM"},
      {"measurement": "concentration at 8 h", "setting": "[1]; rat, plasma, iv, 40 mg/kg, i.v. 40 mg/kg, 8h, mean all rats", "value": 1.41, "unit": "µM"},
      {"measurement": "concentration at 2 h", "setting": "[1]; rat, plasma, iv, 40 mg/kg, rat, i.v. 40 mg/kg, 2h, individual rat, read-out: Plasma concentration", "value": 11.3, "unit": "µM"},
      {"measurement": "concentration at 2 h", "setting": "[1]; rat, plasma, iv, 40 mg/kg, rat, i.v. 40 mg/kg, 2h, mean all rats, read-out: Plasma concentration", "value": 13.9, "unit": "µM"},
      {"measurement": "concentration at 2 h", "setting": "[1]; rat, plasma, iv, 40 mg/kg, rat, i.v. 40 mg/kg, 2h, mean of Plasma 2h, Brain 2h rats, read-out: Plasma concentration", "value": 16, "unit": "µM"},
      {"measurement": "concentration at 2 h", "setting": "[1]; rat, plasma, iv, 40 mg/kg, rat, i.v. 40 mg/kg, 2h, mean of RM Plasma + Brain 24h rats, read-out: Plasma concentration", "value": 11.9, "unit": "µM"},
      {"measurement": "concentration at 24 h", "setting": "[1]; rat, plasma, iv, 40 mg/kg, rat, i.v. 40 mg/kg, 24h, mean all rats, read-out: Plasma concentration", "value": 0.192, "unit": "µM"},
      {"measurement": "concentration at 24 h", "setting": "[1]; rat, plasma, iv, 40 mg/kg, rat, i.v. 40 mg/kg, 24h, mean of RM Plasma + Brain 24h rats, read-out: Plasma concentration", "value": 0.192, "unit": "µM"},
      {"measurement": "half-life", "setting": "[1]; rat, plasma, iv, rats, 40 mg/kg i.v.", "value": "4 ± 0.6", "unit": "h"},
      {"measurement": "Brain penetration", "setting": "[1]; rats, i.p. or i.v. injection", "value": "brain penetrant"},
      {"measurement": "scanMax % of control, ROCK1", "setting": "[2]", "value": "< 10 % of control"}
    ]}
  ]
}
